pIC50: −log10 of the molar value. Read-outs that look alike come from different tables or passages of the source.
Columns and labels:
COX I = target: T1, COX I (Homo sapiens, UniProt P23219); assay: Inhibition of COX I in vitro (radiometric assay, 14C arachidonic acid, partially purified enzyme); format: biochemical
T1 construct: made in house; baculovirus-infected insect cells by own knowledge of the cited Barnett et al. 1994
Description: (§1) The COX I and COX II inhibitory activity of compounds of this invention in vitro was determined using partially purified COX I and COX II enzymes, prepared as described in J. Barnett et al., Biochim. Biophys. Acta, 1209:130--139 (1994).
(§2) COX I and COX II samples were diluted with Tris-HCl buffer (50 mM Tris-HCl pH 7.9) containing 2 mM EDTA and 10% glycerol and reconstituted by incubating first with 2 mM phenol for 5 minutes and then with 1 micromolar hematin for an additional 5 minutes. 125 μl of the reconstituted COX I or COX II enzyme were preincubated for 10 minutes at room temperature in a shaking water bath with the compounds of the invention dissolved in 2-15 μl of DMSO or the carrier vehicles (control samples). The enzyme reaction was initiated by adding 25 μl of 1-[14C] arachidonic acid (80,000-100,000 cpm/tube; 20 micromolar final concentration) and the reaction was allowed to continue for an additional 45 seconds. The reaction was terminated by adding 100 μl of 2N HCl and 750 μl water. An aliquot (950 μl) of the reaction mixture was loaded onto a 1 ml C18 Sep-Pak column (J. T. Baker, Phillipsburg, N.J.) which had been previously washed with 2-3 ml methanol and equilibrated with 5-6 ml distilled water. Oxygenated products were quantitatively eluted with 3 ml of acetonitrile/water/acetic acid (50:50:0.1, v/v) and the radioactivity in the eluate determined in a scintillation counter.

COX II = target: T2, COX II (Homo sapiens, UniProt P35354); assay: Inhibition of COX II in vitro (radiometric assay, 14C arachidonic acid, partially purified enzyme); format: biochemical
T2 construct: made in house; baculovirus-infected insect cells by own knowledge of the cited Barnett et al. 1994
T2 sequence (P35354 18-604): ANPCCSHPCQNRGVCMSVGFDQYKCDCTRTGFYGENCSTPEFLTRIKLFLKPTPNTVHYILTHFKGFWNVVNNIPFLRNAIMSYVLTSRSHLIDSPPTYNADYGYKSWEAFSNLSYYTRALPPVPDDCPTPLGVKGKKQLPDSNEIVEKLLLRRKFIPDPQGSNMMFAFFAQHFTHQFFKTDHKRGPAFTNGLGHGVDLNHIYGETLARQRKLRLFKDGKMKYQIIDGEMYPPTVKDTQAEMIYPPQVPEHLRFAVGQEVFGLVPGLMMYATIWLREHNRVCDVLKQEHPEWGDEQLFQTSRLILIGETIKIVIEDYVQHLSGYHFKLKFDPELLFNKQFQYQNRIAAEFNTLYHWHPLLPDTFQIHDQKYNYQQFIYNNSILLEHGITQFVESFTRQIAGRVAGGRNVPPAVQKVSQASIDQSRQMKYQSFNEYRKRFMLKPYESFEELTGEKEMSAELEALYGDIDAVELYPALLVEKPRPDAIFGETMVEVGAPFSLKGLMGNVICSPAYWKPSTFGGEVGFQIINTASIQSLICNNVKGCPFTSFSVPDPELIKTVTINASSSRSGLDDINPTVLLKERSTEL
Description: as §1, §2

[1] = partially purified COX I, 20 micromolar arachidonic acid, 10 min preincubation, room temperature, read-out: COX I IC50
[2] = partially purified COX II, 20 micromolar arachidonic acid, 10 min preincubation, room temperature, read-out: COX II IC50

T1 sequence (P23219 24-599): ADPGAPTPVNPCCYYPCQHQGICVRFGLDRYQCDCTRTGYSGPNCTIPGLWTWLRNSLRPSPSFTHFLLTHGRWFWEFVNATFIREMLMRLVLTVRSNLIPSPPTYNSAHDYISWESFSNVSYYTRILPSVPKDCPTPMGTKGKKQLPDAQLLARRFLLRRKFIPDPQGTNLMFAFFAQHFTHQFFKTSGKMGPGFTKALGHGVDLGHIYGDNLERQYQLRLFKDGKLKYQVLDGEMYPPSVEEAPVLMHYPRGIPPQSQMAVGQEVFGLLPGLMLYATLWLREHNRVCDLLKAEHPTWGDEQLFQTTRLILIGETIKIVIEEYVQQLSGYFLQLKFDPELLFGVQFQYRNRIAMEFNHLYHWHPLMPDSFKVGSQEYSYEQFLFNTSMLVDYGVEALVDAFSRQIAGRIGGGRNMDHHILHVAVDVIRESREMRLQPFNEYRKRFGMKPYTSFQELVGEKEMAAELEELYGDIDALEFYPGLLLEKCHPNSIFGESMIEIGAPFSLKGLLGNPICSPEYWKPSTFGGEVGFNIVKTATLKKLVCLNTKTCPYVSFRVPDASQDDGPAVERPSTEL

Structure (SMILES) | pIC50 (COX I; [1]) | pIC50 (COX II; [2]) | pIC50 (COX I) | pIC50 (COX II)
CNS(=O)(=O)Nc1ccc(Cc2cc(C)c(C(=O)c3ccc(F)cc3)n2C)c(F)c1 [compound 206, 1-{3-Fluoro-4-[5-(4-fluorobenzoyl)-1,4-dimethyl-1H-pyrrol-2-ylmethyl]phenyl}-3-methylsulfamide] | 6.34 | 6.62 | – | –
NS(=O)(=O)Nc1ccc(C2CCn3c(C(=O)c4ccccc4)ccc32)c(Cl)c1 (stereo not drawn) [compound 222, 1-{3-Chloro-4-[5-benzoyl-1,2-dihydro-3H-pyrrolizin-1-yl]phenyl}sulfamide] | 6.34 | 7.13 | – | –
COc1ccc(C(=O)c2ccc3n2CCC3c2ccc(NS(N)(=O)=O)cc2Cl)cc1 (stereo not drawn) [compound 223, 1-{3-Chloro-4-[5-(4-methoxybenzoyl)-1,2-dihydro-3H-pyrrolizin-1-yl]phenyl}sulfamide] | 7.19 | 7.54 | – | –
Cc1cc(Cc2ccc(NC(=O)CF)cc2)n(C)c1C(=O)c1ccc(Cl)cc1 [compound 243, N-{4-[5-(4-Chlorobenzoyl)-1,4-dimethyl-1H-pyrrol-2-ylmethyl]phenyl}fluoroacetamide] | – | – | 4.00 | 5.05
CSc1ccc(C(=O)c2c(C)cc(Cc3ccc(N)cc3F)n2C)cc1 [compound 251, 3-Fluoro-4-[5-(4-methylthiobenzoyl)-1,4-dimethyl-1H-pyrrol-2-ylmethyl]aniline] | 3.51 | 6.19 | – | –
Cc1ccc(C(=O)c2ccc(Cc3ncc(NS(C)(=O)=O)cc3Cl)n2C)cc1 [compound 276, N-{3-Chloro-2-[5-(4-methylbenzoyl)-1-methyl-1H-pyrrol-2-ylmethyl]pyridin-5-yl}-methanesulfonamide] | 4.22 | 6.30 | – | –
COc1ccc(C(=O)c2c(C)cc(Cc3ccc(NS(C)(=O)=O)cn3)n2C)cc1 [compound 289, N-{2-[5-(4-Methoxybenzoyl)-1,4-dimethyl-1H-pyrrol-2-ylmethyl]pyridin-5-yl}-methanesulfonamide] | 4.99 | 5.82 | – | –
Cc1cc(Cc2ccc(NS(=O)(=O)N(C)C)cn2)n(C)c1C(=O)c1ccccc1 [compound 294, 1-{2-[5-Benzoyl-1,4-dimethyl-1H-pyrrol-2-ylmethyl]pyridin-5-yl}-3,3-dimethylsulfamide] | 5.04 | 5.59 | – | –
Cc1cc(Cc2ccc(NS(N)(=O)=O)cn2)n(C)c1C(=O)c1ccccc1 [compound 295, 1-{2-[5-benzoyl-1,4-dimethyl-1H-pyrrol-2-ylmethyl]pyridin-5-yl}sulfamide] | 6.22 | 7.00 | – | –

The next lines start with results.

pIC50 (COX I; [1]) | pIC50 (COX II; [2]) | Structure (SMILES) | pIC50 (COX I) | pIC50 (COX II)
4.00 | 5.68 | Cc1cc(Cc2ccc(NC(=O)N(C)C)cc2)n(C)c1C(=O)c1ccc(Cl)cc1 [compound 226, 1-{1,4-[5-(4-Chlorobenzoyl)-1,4-dimethyl-1H-pyrrol-2-ylmethyl]phenyl}-3,3-dimethylurea] | – | –
5.60 | 7.00 | Cc1cc(Cc2ccc(NC(=O)Nc3ccccc3)cc2)n(C)c1C(=O)c1ccc(Cl)cc1 [compound 227, 1-{1,4-[5-(4-Chlorobenzoyl)-1,4-dimethyl-1H-pyrrol-2-ylmethyl]phenyl}-3-phenylurea] | – | –
5.07 | 7.00 | Cc1cc(Cc2ccc(NC(=O)Nc3cccc(Cl)c3)cc2)n(C)c1C(=O)c1ccc(Cl)cc1 [compound 228, 1-{4-[5-(4-Chlorobenzoyl)-1,4-dimethyl-1H-pyrrol-2-ylmethyl]phenyl}-3-(3-chlorophenyl)-urea] | – | –
5.09 | 6.77 | CCNC(=S)Nc1ccc(Cc2cc(C)c(C(=O)c3ccc(Cl)cc3)n2C)cc1 [compound 235] | – | –
4.47 | 4.56 | Cc1cc(Cc2ccc(N)cc2)n(C)c1C(=O)c1ccc(Cl)cc1 [compound 250, 4-[5-(4-Chlorobenzoyl)-1,4-dimethyl-1H-pyrrol-2-ylmethyl]aniline] | – | –
3.68 | 6.15 | Cc1cc(Cc2ccc(NS(=O)(=O)CCO)cn2)n(C)c1C(=O)c1ccc(Cl)cc1 [compound 267, N-{2-[5-(4-Chlorobenzoyl)-1,4-dimethyl-1H-pyrrol-2-ylmethyl]pyridin-5-yl}-2-(hydroxy)ethanesulfonamide] | – | –

— patent US5952368A, “5-aroylpyrrol-2-ylmethylarene derivatives” (Syntex (U.S.A.) Inc., priority 1997, dated 1999)
